Assay results as given in patent US20120142676A1, “Oxathiazine and dithiine oxides as inhibitors of sulfhydryl-dependent biomolecules” (priority 2010, published 2012).

What was measured:
[1] = Thioglo-1 fluorescent labeling of sulfhydryl groups, cysteine; details: 50 μM drug, 37° C., 3 h, 20 mM Tris pH 8.0
Description: (§1) The ability of drugs to label sulfhydryl groups of cysteine, glutathione, human serum albumin (HSA) and biomolecules in K562 cells was determined spectrofluorometrically using Thioglo-1, a maleimide reagent that reacts quickly with the sulfhydryl groups to produce highly fluorescent covalent adducts. Drugs that react with sulfhydryl groups block the formation of fluorescent adducts when sulfhydryl reactant is treated with drugs prior to Thioglo-1 treatment. Cysteine (10 μM), glutathione (10 μM), human serum albumin (10 μM), or K562 cell homogenate (6×10^5 cells) in 20 mM Tris pH 8.0, was treated with 1μl of drug (or not) in DMSO at 50 μM reaction concentration at 37° C. for 3 h, followed by the addition of Thioglo-1 (22 μM). The fluorescence was measured in a Fluostar Galaxy (BMG, Durham, N.C.) fluorescence plate reader using an excitation wavelength of 380 nm and an emission wavelength of 520 nm, and the percentage inhibition of fluorescent labeling was obtained using the following equation: % Inhibition=[(1−(Fdrug−Fbackground)/Fdmso]×100, where Fdrug is the fluorescent value for Thioglo-1 treatment of biomolecules pretreated with drug, Fbackground is the fluorescent value for sample containing Thioglo-1 in Tris buffer only, and Fdmso is the fluorescent value for Thioglo-1 treatment of biomolecules pretreated with DMSO solvent only.

[2] = Thioglo-1 fluorescent labeling of sulfhydryl groups, glutathione; details: 50 μM drug, 37° C., 3 h, 20 mM Tris pH 8.0
Description: as §1

[3] = biological target: T1, human serum albumin (HSA) (Homo sapiens, UniProt P02768); test: Thioglo-1 fluorescent labeling of sulfhydryl groups, human serum albumin; type: biochemical; details: 50 μM drug, HSA 10 μM, 37° C., 3 h, 20 mM Tris pH 8.0
Description: as §1

K562 cell homogenate = test: Thioglo-1 fluorescent labeling of sulfhydryl groups, K562 cell homogenate; type: biochemical, human; details: 50 μM drug, 6×10^5 cells, 37° C., 3 h, 20 mM Tris pH 8.0
Description: as §1

human topoisomerase IIα = biological target: T2, human topoisomerase IIα (Homo sapiens, UniProt P11388); test: Topoisomerase IIα decatenation inhibition assay; type: biochemical; details: K562 cells nuclear extract, kDNA decatenation
T2 construct: 300 ng K562 cells nuclear extract, the amount that gave 80% decatenation; endogenous in cells; host or cells: K562 cells nuclear extract
Description: The catalytic inhibition of human topoisomerase IIα by a drug was measured by the ATP-dependent decatenation of kDNA (Topogen, Columbus, Ohio) into minicircles of DNA as we previously described (Hasinoff 1995 QSAR ICRF-187). The 20 μl reaction mixture contained 0.5 mM ATP, 50 mM Tris-HCl (pH 8.0), 120 mM KCl, 10 mM MgCl2, 30 μg/ml bovine serum albumin, 40 ng kDNA, drug or DMSO (0.5 μl) and 300 ng K562 cells nuclear extract, the amount that gave 80% decatenation. The enzymatic reaction was carried out at 37° C. and was terminated by the addition of 6 μl of buffer containing 5 mM Tris pH 8.0, 30% w/v sucrose, 0.5% bromophenol blue, and 125 mM EDTA. The resulting mixture was separated by electrophoresis (2 h at 8 V/cm) on an agarose gel prepared from 1.2% w/v agarose and 0.5 μg/ml ethidium bromide in TAE buffer pH 8.0 (40 mM Tris base, 0.114% (v/v) glacial acetic acid, 2 mM EDTA). The DNA in the gel was imaged by its fluorescence on an Alpha Annotech Fluorchem 8900 imaging system equipped with a 365 nm illuminator and a CCD camera. Densitometry scanning of gel photographs was used to obtain the fluorescence intensity of the band corresponding to the DNA minicircles. The percentage inhibition of K562 topoisomerase II catalytic activity at concentrations of 3 and 30 μM was determined using the following equation: % Inhibition=[(1−(Bdrug−Bbackground)/Bdmso]×100, where Bdrug is the band intensity value for the enzymatic reaction sample treated with drug, Bbackground is the band intensity value for sample without the enzyme, and Bdmso is the band intensity value for the enzymatic reaction sample treated with DMSO solvent only.

[4] = tested on: human leukemia K562 cells; test: K562 cell growth inhibition assay (MTS); type: cell-based; details: 72 h incubation, read-out: Median growth inhibitory concentration (IC50) of K562 cells
Description: K562 cells were obtained from American Type Culture Collection (Rockville, Md.). These cells were maintained as suspension cultures in alpha minimum essential medium (αMEM) (Gibco BRL, Burlington, Canada) containing 2 mM L-glutamine and supplemented with 10% fetal calf serum (Invitrogen, Burlington, ON, Canada), 20 mM NaHCO3, 20 mM HEPES (Sigma), 100 units/ml penicillin G, and 100 μg/ml streptomycin at pH 7.4 in an atmosphere of 5% CO2 and 95% air at 37° C. For the measurement of growth inhibition, cells in exponential growth were harvested and seeded at 6000 cells/well in 96-well plates (100 μl/well). Drugs were dissolved in DMSO and added to the wells such that the final concentration of DMSO was 0.5% (v/v). After 72 h incubation, 7 μl of 3-(4,5-dimethylthiazol-2-yl)-5-(3-carboxymethoxyphenyl)-2-(4-sulfophenyl)-2H-tetrazolium (MTS) Cell Titer 96® AQueous One Solution (Promega, Md., WI) was added to each well and incubated for a further 3 h. The absorbance was measured in a Molecular Devices (Menlo Park, Calif.) plate reader. The spectrophotometric 96-well plate cell growth inhibition assay measures the ability of the cells to enzymatically reduce MTS. Three replicates were measured at each drug concentration, and the IC50 values and their SEs for growth inhibition were obtained by fitting the absorbance-drug concentration data to a four-parameter logistic equation.

[5] = biological target: T1, human serum albumin (HSA); test: ESI-MS study on covalent labeling of sulfhydryl group of HSA; type: binding; details: drug with 65 μM HSA, Tris pH 7.5, 5 h, room temperature
Description: The MS drug-HSA protein binding studies were carried out using an Applied Biosystems API 2000 Triple Quadrupole mass spectrometer (Thornhill, Canada) equipped with a syringe pump (Harvade Apparatus, Holliston, Mass.) at a flow rate of 5-10 μl/min. The Analyst software (version 1.4) was used for system control and data acquisition. The ESI source was operated in the positive ion mode with an electrospray voltage of +4.4 kV without capillary heating. MagTran freeware (version 1.02, http://www.geocities.com/SiliconValley/Hills/2679/magtran.html) was used for charge state deconvolution of HSA and drug-HSA covalent adducts.
The reaction of drug and HSA was carried out by mixing drug (or not) in DMSO (11μl, 6 mM) with HSA in 16 mM Tris pH 7.5 buffer (1 ml, 65 μM) for 5 h at room temperature. The reaction mixture was then dialyzed using a dialysis membrane with a 10,000 Da cutoff. The dialyzed mixture (150 μl) was diluted with a solution mixture of water (124 μl), methanol (76 μl), and formic acid (17 μl, 6% v/v). Scanning was 1000-1800 m/z units every 4 s with a step size of 0.10 amu.

T2 sequence (P11388 whole entry): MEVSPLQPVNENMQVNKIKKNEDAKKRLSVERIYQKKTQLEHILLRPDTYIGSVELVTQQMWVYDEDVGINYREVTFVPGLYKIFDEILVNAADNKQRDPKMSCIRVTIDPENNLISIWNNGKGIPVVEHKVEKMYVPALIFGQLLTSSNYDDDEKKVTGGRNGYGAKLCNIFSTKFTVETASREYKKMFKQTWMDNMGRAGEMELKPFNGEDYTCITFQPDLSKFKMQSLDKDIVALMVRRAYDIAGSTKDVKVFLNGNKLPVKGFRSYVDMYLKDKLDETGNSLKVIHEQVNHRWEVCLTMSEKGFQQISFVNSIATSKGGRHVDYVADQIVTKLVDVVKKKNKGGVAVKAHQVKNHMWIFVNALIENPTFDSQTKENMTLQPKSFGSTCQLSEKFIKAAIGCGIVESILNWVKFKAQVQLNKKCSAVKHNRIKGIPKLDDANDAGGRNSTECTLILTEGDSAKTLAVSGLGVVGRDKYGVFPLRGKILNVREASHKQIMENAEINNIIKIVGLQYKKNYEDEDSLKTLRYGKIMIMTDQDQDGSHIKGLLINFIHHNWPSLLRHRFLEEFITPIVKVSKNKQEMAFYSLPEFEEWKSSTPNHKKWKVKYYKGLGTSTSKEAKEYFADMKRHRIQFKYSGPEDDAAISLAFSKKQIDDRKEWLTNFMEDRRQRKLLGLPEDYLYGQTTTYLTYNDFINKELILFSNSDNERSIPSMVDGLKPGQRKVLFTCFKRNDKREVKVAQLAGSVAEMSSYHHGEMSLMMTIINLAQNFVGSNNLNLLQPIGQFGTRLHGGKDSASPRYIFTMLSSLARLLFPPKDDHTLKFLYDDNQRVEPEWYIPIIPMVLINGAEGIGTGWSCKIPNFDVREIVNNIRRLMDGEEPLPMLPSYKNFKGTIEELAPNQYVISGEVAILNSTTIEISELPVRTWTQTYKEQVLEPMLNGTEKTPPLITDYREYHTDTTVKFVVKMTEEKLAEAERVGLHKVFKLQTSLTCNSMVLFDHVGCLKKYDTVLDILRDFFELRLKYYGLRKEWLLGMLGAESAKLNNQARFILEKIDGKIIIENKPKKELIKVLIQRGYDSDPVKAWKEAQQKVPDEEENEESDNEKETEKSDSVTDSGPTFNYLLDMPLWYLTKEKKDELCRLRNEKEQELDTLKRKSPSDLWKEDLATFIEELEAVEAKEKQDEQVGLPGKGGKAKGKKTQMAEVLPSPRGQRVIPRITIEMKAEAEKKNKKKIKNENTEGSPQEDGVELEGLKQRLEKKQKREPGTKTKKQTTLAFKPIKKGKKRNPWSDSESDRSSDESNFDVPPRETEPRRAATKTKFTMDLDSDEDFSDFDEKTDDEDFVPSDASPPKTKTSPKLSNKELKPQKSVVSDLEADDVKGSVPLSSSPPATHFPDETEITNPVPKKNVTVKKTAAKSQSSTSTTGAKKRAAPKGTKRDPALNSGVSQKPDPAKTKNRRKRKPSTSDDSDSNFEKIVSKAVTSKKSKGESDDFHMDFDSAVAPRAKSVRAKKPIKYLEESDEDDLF
T1 sequence (P02768 25-609): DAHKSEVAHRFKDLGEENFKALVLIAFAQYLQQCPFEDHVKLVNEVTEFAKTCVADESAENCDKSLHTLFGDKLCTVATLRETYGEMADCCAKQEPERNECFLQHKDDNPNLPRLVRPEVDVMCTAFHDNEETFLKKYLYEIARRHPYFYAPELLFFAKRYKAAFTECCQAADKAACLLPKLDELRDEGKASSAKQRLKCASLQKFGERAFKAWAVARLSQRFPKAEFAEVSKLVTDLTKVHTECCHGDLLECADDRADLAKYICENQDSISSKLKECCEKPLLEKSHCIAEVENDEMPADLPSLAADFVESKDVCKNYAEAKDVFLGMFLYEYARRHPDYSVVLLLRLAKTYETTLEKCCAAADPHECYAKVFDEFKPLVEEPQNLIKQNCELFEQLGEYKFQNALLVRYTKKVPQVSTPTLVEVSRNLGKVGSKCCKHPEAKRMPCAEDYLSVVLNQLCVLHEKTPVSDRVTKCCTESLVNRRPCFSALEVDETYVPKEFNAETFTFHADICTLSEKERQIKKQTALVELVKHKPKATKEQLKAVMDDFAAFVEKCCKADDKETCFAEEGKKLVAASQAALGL

- % Inhibition of Thioglo-1 fluorescent labeling of Human serum albumin [3]: 85%
- % Inhibition of topoisomerase II catalytic activity (human topoisomerase IIα; 3 μM): 100%
- % Inhibition of topoisomerase II catalytic activity (human topoisomerase IIα; 30 μM): 100%
- IC50 [4]: 700 nM
- Covalent labeling of HSA (ESI-MS peak description) [5]: Covalent adduct of HSA and Compound 9
SMILES: [O-][S+]1CCON=C1c1cc2ccccc2s1 (centres unmarked) [CMPD #9]
- % Inhibition of Thioglo-1 fluorescent labeling of 10 μM Cysteine [1]: 100%
- % Inhibition of Thioglo-1 fluorescent labeling of 10 μM Glutathione [2]: 100%
- % Inhibition of Thioglo-1 fluorescent labeling of K562 Cell homogenate (K562 cell homogenate): 95%
